{"source": "patent US9963461B2", "about": "“Phillygenin ibuprofen ester, preparation method therefor, and application thereof” (priority 2014, dated 2018)", "key": {"[1]": {"system": "sweat secretion of rat paw part", "test": "Sweat secretion of rat paw part (coloring method)", "format": "in vivo, Wistar rats", "conditions": "35.0 mg/kg subcutaneous; for Animal number of sweat points of level +: + = sweat area below about 10%; for Animal number of sweat points of level ++: ++ = sweat area about 11-40%; for Animal number of sweat points of level +++: +++ = sweat area about 41-70%; for Animal number of sweat points of level ++++: ++++ = sweat area over 71%; for Animal number of sweat points of level −: − = no sweat point", "description": "This test was designed to observe the change of sweat secretion based on the mechanism that sweat gland is distributed on the rat paw pads, and iodine and starch can have purple reaction when encountered with sweat. In the test, 350 Wistar rats were selected, with equal male and female number, weighing 120-150 g. […] The rats were placed in a self-made rat fixation bag, with the double hind limbs exposed. The dirts on the right paw was gently scrubbed clean with the cotton swab dipped with anhydrous ethanol. Besides that subcutaneous injection was used for the pilocarpine solution, intragastric administration was used for all the other groups. […] When the test was complete, statistical process was carried out according to the rank-sum test with two-sample comparison, in order to compare the difference between the groups."}, "[2]": {"system": "sweat gland epithelial cells at the rat toe part", "test": "Sweat secretion of rat paw part (tissue morphology observation method)", "format": "in vivo, Wistar rats", "conditions": "rat toe part; 35.0 mg/kg subcutaneous", "description": "This test was based on the mechanism that when rat sweat gland is excited, in addition to sweat secretion increase, the morphology of sweat gland epithelial cell is also changed. The number increase and expansion of empty cells of the sweat gland epithelial cells can be seen under the optical microscope. Such enlarged vacuole presents mitochondrial in sweat gland epithelial cells swelling, rupture, fusion and secretory vesicle enlargement under the electron microscope, and through the morphological observation of the sweat gland epithelial cell at the rat paw part, the secretory activity of the sweat gland can be known. In the test, 70 Wistar rats were selected, with equal male and female number, weighing 120-160 g. […] Besides that subcutaneous injection was used for the pilocarpine solution, intragastric administration was used for all the other groups."}, "[3]": {"system": "beer yeast induced rat fever", "test": "Beer yeast induced rat fever", "format": "in vivo, Wistar rats", "conditions": "100 mg/kg", "protocol": "Male Wistar rats were selected, weighing 180-200 g. Before the test, WSC-411P portable digital thermometer was used to measure the normal rectal temperature twice (with certain interval for each time), and the average value of the two measurements was taken as the normal body temperature of the rat. Then 70 rats with the body temperature between 36.5° C. and 38° C. were chosen to be randomly divided into 7 groups by weight: the model (0.5% carboxymethylcellulose) group, the 2.5, 5, and 10 mg/kg phillygenin ibuprofen ester groups, the positive drug paracetamol (100 mg/kg) group, the ibuprofen group (i.e. prodrug control group, 300 mg/kg), the phillygenin group (100 mg/kg), with 10 rats for each group. Each group of rats were subjected to back subcutaneous injection with 10% fresh beer yeast suspension of 10 ml/kg to induce heat. After administration of 10% fresh beer yeast suspension for 6.0 h, phillygenin ibuprofen ester and paracetamol were both subjected to intragastric administration, and the model group was intragastrically administrated with equal volume of 0.5% carboxymethylcellulose. Rectal temperature was measured after 1 h, 2 h, 3 h and 4 h of the administration respectively. Changes in the body temperature were observed and difference between the groups was compared by inter-group t test processing through antipyretic percentage."}, "[4]": {"system": "rabbit fever induced by typhoid and paratyphoid vaccine", "test": "Rabbit fever induced by typhoid and paratyphoid vaccine", "format": "in vivo, Japanese white rabbits", "conditions": "50 mg/kg", "protocol": "Japanese male big-ear white rabbits, weighing 1.5-2.0 kg. Before the test, WSC-411P portable digital thermometer was used to measure the normal rectal temperature twice (with certain interval for each time), and the average value was taken as the normal body temperature. Then 48 Japanese big-ear white rabbits with body temperature of 38-39.6° C. were selected and randomly divided into 8 groups by weight, namely: the blank control (normal saline) group, the model control (0.5% carboxymethylcellulose) group, the ibuprofen group (300 mg/kg), the phillygenin group (10 mg/kg), the 1.25, 2.5, and 5 mg/kg phillygenin ibuprofen ester groups and the positive drug paracetamol (50 mg/kg) group. The rabbits were fixed in a fixator. The blank control group was intravenously injected with normal saline of 1 ml/kg via the ear margin; The model control group and the drug groups were intravenously injected with typhoid and paratyphoid vaccines of 0.8 ml/kg via the ear margin. When the body temperature rise of the rabbits was greater than 1° C. (requiring about 1-1.5 h, which was restricted to 1 h in this test), the blank control group and the model group were administered intragastrically with 0.5% carboxymethycellulose of 1 ml/kg, and the drug groups were administered intragastrically with phillygenin ibuprofen ester and paracetamol. […]"}, "[5]": {"system": "mice pain induced by acetic acid", "test": "Analgesic test, mice writhing induced by acetic acid", "format": "in vivo, Kunming mice", "conditions": "200 mg/kg intragastric; within 15 min after 0.7% acetic acid", "protocol": "72 Kunming mice were randomly divided into 6 groups, with 12 mice for each group. (1) the blank normal control group (i.e. saline group, […]); (2) positive drug aspirin group (200 mg/kg); (3) ibuprofen group (300 mg/kg); (4) high dose group of phillygenin ibuprofen ester (300 mg/kg); (5) medium dose group of phillygenin ibuprofen ester (150 mg/kg); (6) low dose group of phillygenin ibuprofen ester (75 mg/kg). […] The number of mice writhings within 15 min after administration was recorded. The number of writhings was taken as the evaluation index to evaluate the analgesic effect."}, "[6]": {"system": "rat toe swelling induced by carrageenan", "test": "Rat toe swelling induced by carrageenan", "format": "in vivo, Wistar rats", "conditions": "200 mg/kg sublingual intravenous injection", "protocol": "The test groups were administered by sublingual intravenous injection. Before the test, capillary magnification measurement method was used to measure the normal volume of the right hind foot of the rats in each group. To avoid errors, the measurement location was fixed and the operation was made by one person both before and after the administration. The average value of the two measurements was taken as the normal volume of the right hind foot of the rats before administration. […] The difference between the groups was compared by inter-group t test processing through the difference percentage (swelling ratio) of the paw volume before and after the induced rat inflammation."}, "[7]": {"conditions": "after coating B liquid for 1 minute"}, "[8]": {"conditions": "after coating B liquid for 5 minutes"}, "[9]": {"conditions": "after coating B liquid for 10 minutes"}, "[10]": {"conditions": "after coating B liquid for 15 minutes (Table 2-4)"}, "[11]": {"conditions": "after coating B liquid for 15 minutes (Table 2-5)"}, "[12]": {"conditions": "time after administration (min) 30"}, "[13]": {"conditions": "time after administration (min) 60"}, "[14]": {"conditions": "time after administration (min) 90"}, "[15]": {"conditions": "time after administration (min) 120"}, "[16]": {"conditions": "time after administration (min) 180"}}, "note": "Marks after values point to notes of the source that are not given here.", "data": [{"smiles": "CC[C@@H]1C(=O)OC[C@@H]1Cc1cncn1C", "note": "[Pilocarpine]", "values": [{"measurement": "Animal number of sweat points of level +", "setting": "[1]; [7]", "result": 1}, {"measurement": "Animal number of sweat points of level ++", "setting": "[1]; [7]", "result": 3}, {"measurement": "Animal number of sweat points of level +++", "setting": "[1]; [7]", "result": 1}, {"measurement": "Animal number of sweat points of level ++++", "setting": "[1]; [7]", "result": 5}, {"measurement": "Animal number of sweat points of level −", "setting": "[1]; [7]", "result": 0}, {"measurement": "Animal number of sweat points of level +", "setting": "[1]; [8]", "result": 1}, {"measurement": "Animal number of sweat points of level ++", "setting": "[1]; [8]", "result": 2}, {"measurement": "Animal number of sweat points of level +++", "setting": "[1]; [8]", "result": 1}, {"measurement": "Animal number of sweat points of level ++++", "setting": "[1]; [8]", "result": 6}, {"measurement": "Animal number of sweat points of level −", "setting": "[1]; [8]", "result": 0}, {"measurement": "Animal number of sweat points of level +", "setting": "[1]; [9]", "result": 1}, {"measurement": "Animal number of sweat points of level ++", "setting": "[1]; [9]", "result": 2}, {"measurement": "Animal number of sweat points of level +++", "setting": "[1]; [9]", "result": 1}, {"measurement": "Animal number of sweat points of level ++++", "setting": "[1]; [9]", "result": 6}, {"measurement": "Animal number of sweat points of level −", "setting": "[1]; [9]", "result": 0}, {"measurement": "Animal number of sweat points of level +", "setting": "[1]; [10]", "result": 0}, {"measurement": "Animal number of sweat points of level ++", "setting": "[1]; [10]", "result": 2}, {"measurement": "Animal number of sweat points of level +++", "setting": "[1]; [10]", "result": 1}, {"measurement": "Animal number of sweat points of level ++++", "setting": "[1]; [10]", "result": 6}, {"measurement": "Animal number of sweat points of level −", "setting": "[1]; [10]", "result": 0}, {"measurement": "Animal number of sweat points of level +", "setting": "[1]; [11]", "result": 0}, {"measurement": "Animal number of sweat points of level ++", "setting": "[1]; [11]", "result": 2}, {"measurement": "Animal number of sweat points of level +++", "setting": "[1]; [11]", "result": 1}, {"measurement": "Animal number of sweat points of level ++++", "setting": "[1]; [11]", "result": 6}, {"measurement": "Animal number of sweat points of level −", "setting": "[1]; [11]", "result": 0}, {"measurement": "Number of sweat glands of vacuole", "setting": "[2]", "result": 57}, {"measurement": "Void fraction (%)", "setting": "[2]", "result": "27.40*** %"}]}, {"smiles": "CC(=O)Nc1ccc(O)cc1", "note": "[Paracetamol]", "values": [{"measurement": "Body temperature (° C.)", "setting": "[3]; 1 h after administration", "result": "38.66 ± 0.58", "unit": "°C"}, {"measurement": "antipyretic percentage (%)", "setting": "[3]; 1 h after administration", "result": "−2.07 ± 0.54", "unit": "%"}, {"measurement": "Body temperature (° C.)", "setting": "[3]; 2 h after administration", "result": "38.19 ± 0.59", "unit": "°C"}, {"measurement": "antipyretic percentage (%)", "setting": "[3]; 2 h after administration", "result": "−3.27 ± 0.77", "unit": "%"}, {"measurement": "Body temperature (° C.)", "setting": "[3]; 3 h after administration", "result": "37.98 ± 0.19", "unit": "°C"}, {"measurement": "antipyretic percentage (%)", "setting": "[3]; 3 h after administration", "result": "−3.80 ± 1.43", "unit": "%"}, {"measurement": "Body temperature (° C.)", "setting": "[3]; 4 h after administration", "result": "37.84 ± 0.32", "unit": "°C"}, {"measurement": "antipyretic percentage (%)", "setting": "[3]; 4 h after administration", "result": "−4.15 ± 1.59", "unit": "%"}, {"measurement": "Body temperature (° C.)", "setting": "[4]; [12]", "result": "40.53 ± 0.68", "unit": "°C"}, {"measurement": "antipyretic percentage (%)", "setting": "[4]; [12]", "result": "−1.14 ± 0.59", "unit": "%"}, {"measurement": "Body temperature (° C.)", "setting": "[4]; [13]", "result": "40.10 ± 0.48", "unit": "°C"}, {"measurement": "antipyretic percentage (%)", "setting": "[4]; [13]", "result": "−2.18 ± 0.16", "unit": "%"}, {"measurement": "Body temperature (° C.)", "setting": "[4]; [14]", "result": "39.83 ± 0.57", "unit": "°C"}, {"measurement": "antipyretic percentage (%)", "setting": "[4]; [14]", "result": "−2.83 ± 0.16", "unit": "%"}, {"measurement": "Body temperature (° C.)", "setting": "[4]; [15]", "result": "39.72 ± 0.54", "unit": "°C"}, {"measurement": "antipyretic percentage (%)", "setting": "[4]; [15]", "result": "−3.11 ± 0.29", "unit": "%"}, {"measurement": "Body temperature (° C.)", "setting": "[4]; [16]", "result": "39.61 ± 0.48", "unit": "°C"}, {"measurement": "antipyretic percentage (%)", "setting": "[4]; [16]", "result": "−3.38 ± 0.25", "unit": "%"}]}, {"smiles": "CC(=O)Oc1ccccc1C(=O)O", "note": "[Aspirin]", "values": [{"measurement": "Writhing times", "setting": "[5]", "result": "5.0*"}, {"measurement": "Swelling ratio (%)", "setting": "[6]; 30 min", "result": "0.120 ± 0.138", "unit": "%"}, {"measurement": "Swelling ratio (%)", "setting": "[6]; 60 min", "result": "0.168 ± 0.172", "unit": "%"}, {"measurement": "Swelling ratio (%)", "setting": "[6]; 120 min", "result": "0.215 ± 0.178", "unit": "%"}, {"measurement": "Swelling ratio (%)", "setting": "[6]; 180 min", "result": "0.343 ± 0.337", "unit": "%"}, {"measurement": "Swelling ratio (%)", "setting": "[6]; 240 min", "result": "0.470 ± 0.289", "unit": "%"}, {"measurement": "Swelling ratio (%)", "setting": "[6]; 300 min", "result": "0.690 ± 0.369", "unit": "%"}, {"measurement": "Swelling ratio (%)", "setting": "[6]; 360 min", "result": "0.525 ± 0.338", "unit": "%"}]}]}
